In US10150728B2, “Alkylene derivatives” (Shionogi & Co., Ltd., priority 2013, dated 2018) one finds IC50 data, which are given here for 47 compounds.

In this assay the target is recombinant human ACC2 (Homo sapiens (Human), UniProt O00763). Description: Measurement of inhibitory activity on human ACC2 (MALDI-TOF MS, acetyl CoA to malonyl CoA conversion). The format is biochemical. To be noted: Tables 155-159. The gist of the method: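 His-tagged human ACC2 (residues 27–2458) from baculovirus-infected Sf-9 cells was preincubated 1 h in pH 7.4 HEPES-KOH buffer with MgCl2, 6-10 mM potassium citrate, glutathione and BSA. Substrate solution held 1 mM ATP, 0.8 mM acetyl CoA and 25-50 mM bicarbonate. After 1–3 h at room temperature, malonyl CoA/(malonyl+acetyl CoA) was read by negative-mode MALDI-TOF MS; citrate, bicarbonate and time varied by enzyme lot.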
Sequence of recombinant human ACC2 (O00763 27-2458): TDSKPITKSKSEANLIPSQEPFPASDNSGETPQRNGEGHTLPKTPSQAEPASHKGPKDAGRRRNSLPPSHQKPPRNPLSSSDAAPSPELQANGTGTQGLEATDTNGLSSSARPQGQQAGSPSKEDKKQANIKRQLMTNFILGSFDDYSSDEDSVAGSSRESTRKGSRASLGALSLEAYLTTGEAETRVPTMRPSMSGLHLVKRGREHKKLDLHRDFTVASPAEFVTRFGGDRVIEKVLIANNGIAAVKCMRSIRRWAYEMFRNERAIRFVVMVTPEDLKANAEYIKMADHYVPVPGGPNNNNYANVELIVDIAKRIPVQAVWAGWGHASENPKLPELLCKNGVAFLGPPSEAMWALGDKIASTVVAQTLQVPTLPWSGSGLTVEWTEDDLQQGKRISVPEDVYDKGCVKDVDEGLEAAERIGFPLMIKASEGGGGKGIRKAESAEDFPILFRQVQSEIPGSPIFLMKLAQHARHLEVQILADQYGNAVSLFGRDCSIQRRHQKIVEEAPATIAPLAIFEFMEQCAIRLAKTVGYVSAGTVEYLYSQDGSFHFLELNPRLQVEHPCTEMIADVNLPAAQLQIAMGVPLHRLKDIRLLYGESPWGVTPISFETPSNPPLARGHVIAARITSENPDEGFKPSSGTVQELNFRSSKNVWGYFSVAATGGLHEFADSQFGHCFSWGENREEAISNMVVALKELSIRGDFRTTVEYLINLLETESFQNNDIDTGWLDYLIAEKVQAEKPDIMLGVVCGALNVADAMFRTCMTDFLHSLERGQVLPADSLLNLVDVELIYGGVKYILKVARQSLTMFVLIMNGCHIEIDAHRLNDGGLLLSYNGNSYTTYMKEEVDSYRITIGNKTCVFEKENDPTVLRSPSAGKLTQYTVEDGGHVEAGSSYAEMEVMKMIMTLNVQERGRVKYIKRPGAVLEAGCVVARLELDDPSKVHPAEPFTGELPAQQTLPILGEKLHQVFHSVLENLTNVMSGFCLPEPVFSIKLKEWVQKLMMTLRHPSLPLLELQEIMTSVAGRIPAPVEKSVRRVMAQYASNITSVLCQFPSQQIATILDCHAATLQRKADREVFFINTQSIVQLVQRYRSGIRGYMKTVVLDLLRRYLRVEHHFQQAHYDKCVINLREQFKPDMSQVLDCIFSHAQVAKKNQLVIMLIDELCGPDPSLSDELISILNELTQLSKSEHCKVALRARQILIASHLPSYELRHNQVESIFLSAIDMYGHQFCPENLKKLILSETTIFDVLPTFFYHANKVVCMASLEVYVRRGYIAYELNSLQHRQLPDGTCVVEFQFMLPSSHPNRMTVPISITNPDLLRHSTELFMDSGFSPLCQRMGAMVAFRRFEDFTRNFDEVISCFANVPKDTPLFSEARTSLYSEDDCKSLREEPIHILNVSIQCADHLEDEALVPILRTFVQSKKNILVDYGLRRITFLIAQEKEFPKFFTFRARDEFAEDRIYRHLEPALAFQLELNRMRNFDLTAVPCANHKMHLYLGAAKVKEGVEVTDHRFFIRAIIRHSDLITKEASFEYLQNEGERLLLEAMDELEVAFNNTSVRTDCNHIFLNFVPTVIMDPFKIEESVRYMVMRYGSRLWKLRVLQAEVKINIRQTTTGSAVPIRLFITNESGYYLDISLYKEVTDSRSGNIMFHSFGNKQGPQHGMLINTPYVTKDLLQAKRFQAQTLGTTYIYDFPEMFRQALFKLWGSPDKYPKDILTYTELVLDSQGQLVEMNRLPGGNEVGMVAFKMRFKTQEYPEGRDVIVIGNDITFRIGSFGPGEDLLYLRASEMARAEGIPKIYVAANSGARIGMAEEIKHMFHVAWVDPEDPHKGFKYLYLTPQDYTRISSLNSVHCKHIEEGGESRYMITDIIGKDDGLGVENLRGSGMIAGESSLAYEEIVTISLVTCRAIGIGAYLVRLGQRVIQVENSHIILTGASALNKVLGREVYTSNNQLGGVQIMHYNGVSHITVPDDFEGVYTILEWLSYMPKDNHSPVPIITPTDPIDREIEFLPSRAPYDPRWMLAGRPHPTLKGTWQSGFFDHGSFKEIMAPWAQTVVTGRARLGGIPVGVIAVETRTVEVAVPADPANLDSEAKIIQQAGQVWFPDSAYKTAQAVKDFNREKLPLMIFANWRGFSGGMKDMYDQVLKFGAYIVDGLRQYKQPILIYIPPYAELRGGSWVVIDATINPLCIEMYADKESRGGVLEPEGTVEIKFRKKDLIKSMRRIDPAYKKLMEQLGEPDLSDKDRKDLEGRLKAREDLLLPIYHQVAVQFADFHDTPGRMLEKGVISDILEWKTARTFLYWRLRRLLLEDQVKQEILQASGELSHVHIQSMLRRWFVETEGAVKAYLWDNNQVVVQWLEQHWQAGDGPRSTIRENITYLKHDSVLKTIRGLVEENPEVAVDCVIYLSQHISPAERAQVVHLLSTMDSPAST

SMILES strings stand for the structures.

Consider `CC(=O)N[C@@H](C)CO[C@H]1C[C@H](COc2nc3sc(OCC(F)F)nc3cc2F)C1` [Compound I-180], for which the IC50 was found to be 21 nM.
As to `CC(=O)N[C@@H](C)CO[C@H]1C[C@H](COc2nc3sc(OCC(F)(F)F)nc3cc2F)C1` [Compound I-181], the IC50 came to 14 nM.
For `CC(=O)N[C@@H](C)CO[C@H]1C[C@H](COc2nc3sc(OC(C)C)nc3cc2F)C1` [Compound I-182], the IC50 was 12 nM.
`CC(=O)N[C@@H](C)CO[C@H]1CC[C@H](Oc2cc3sc(OCC4CC4)nc3cn2)CC1` [Compound I-183]: the half-inhibitory concentration (IC50) amounted to 14 nM.
With `CC(=O)N[C@@H](C)CO[C@H]1CC[C@H](Oc2cc3sc(OCC(F)(F)F)nc3cn2)CC1` [Compound I-184], the IC50 worked out at 54 nM.
On to `CC(=O)N[C@@H](C)CO[C@H]1CC[C@H](Oc2cc3sc(OCC(F)F)nc3cn2)CC1` [Compound I-185], for which the IC50 was 44 nM.
Under `CCOc1nc2cc(F)c(O[C@H]3CC[C@H](OC[C@H](C)NC(C)=O)CC3)nc2s1` [Compound I-186] stands 5 nM; under `CC(=O)N[C@@H](C)CO[C@H]1CC[C@H](Oc2ccc3nc(N4CC(C)(O)C4)sc3c2F)CC1` [Compound I-187], 234 nM.
As for `CC(=O)N[C@@H](C)CO[C@H]1CC[C@H](Oc2ccc3nc(N4CCC(F)(F)CC4)sc3c2F)CC1` [Compound I-188], the IC50 was found to be 41 nM.
On to `CC(=O)N[C@@H](C)CO[C@H]1CC[C@H](Oc2ccc3nc(N4CCC(F)(F)C4)sc3c2F)CC1` [Compound I-189], for which the IC50 worked out at 27 nM.
On to `CCN(C)c1nc2ccc(O[C@H]3CC[C@H](OC[C@H](C)NC(C)=O)CC3)c(F)c2s1` [Compound I-190], for which the concentration for half-maximal inhibition (IC50) is 73 nM.
As to `CC(=O)N[C@@H](C)CO[C@H]1C[C@H](COc2ccc3nc(OC[C@H](C)F)sc3n2)C1` [Compound I-191], the IC50 is 12 nM.
Turning to `CC(=O)N[C@@H](C)CO[C@H]1C[C@H](COc2ccc3nc(OCC4(C#N)CC4)sc3n2)C1` [Compound I-192], the IC50 stood at 61 nM.
As for `CC(=O)N[C@@H](C)CO[C@H]1C[C@H](COc2ccc3nc(OCC(C)(F)F)sc3n2)C1` [Compound I-193], the IC50 turned out to be 12 nM.
Take `CC(=O)N[C@@H](C)CO[C@H]1C[C@H](COc2ccc3nc(OC(C)CF)sc3n2)C1` (some centres unmarked) [Compound I-194]: the IC50 was determined as 12 nM.
Consider `CC(=O)N[C@@H](C)CO[C@H]1C[C@H](COc2ccc3nc(OCC4(F)COC4)sc3n2)C1` [Compound I-195], for which the IC50 stood at 28 nM.
Under `CC(=O)N[C@@H](C)CO[C@H]1C[C@H](COc2ccc3nc(OCC(C)C)sc3n2)C1` [Compound I-196] stands 12 nM; under `CC(=O)N[C@@H](C)CO[C@H]1C[C@H](COc2ccc3nc(OCC4CC4(F)F)sc3n2)C1` (some centres unmarked) [Compound I-197], 15 nM; under `CC(=O)N[C@@H](C)CO[C@H]1C[C@H](COc2ccc3nc(OCC4(C)CC4)sc3n2)C1` [Compound I-198], 5 nM.
In the case of `CC(=O)N[C@@H](C)CO[C@H]1C[C@H](COc2ccc3nc(OCC4CCO4)sc3n2)C1` (some centres unmarked) [Compound I-199], the concentration for half-maximal inhibition (IC50) came out at 121 nM.
Take `CC(=O)N[C@@H](C)CO[C@H]1C[C@H](COc2ccc3nc(OC4(C)CC4)sc3n2)C1` [Compound I-200]: the IC50 is 30 nM.
The value for `CC(=O)N[C@@H](C)CO[C@H]1CC[C@](F)(COc2ccc3nc(OCC4CC4)sc3n2)CC1` [Compound I-201] was 17 nM; that for `CC(=O)N[C@@H](C)CO[C@H]1C[C@](F)(COc2ccc3nc(OC(C)CF)sc3n2)C1` (some centres unmarked) [Compound I-202] was 66 nM.
The value for `CC(=O)N[C@@H](C)CO[C@H]1C[C@](F)(COc2ccc3nc(OCC(C)(F)F)sc3n2)C1` [Compound I-203] was 48 nM; that for `CC(=O)N[C@@H](C)CO[C@H]1C[C@](F)(COc2ccc3nc(Oc4ccc(F)cc4)sc3n2)C1` [Compound I-204] was 113 nM.
The value for `C[C@@H](CO[C@H]1C[C@H](COc2ccc3nc(OCC(F)F)sc3n2)C1)NC(N)=O` [Compound I-205] was 25 nM; that for `C[C@@H](CO[C@H]1C[C@H](COc2ccc3nc(OCC(F)F)sc3n2)C1)NC(=O)O` [Compound I-206] was 79 nM.
For `C[C@@H](CO[C@H]1C[C@H](COc2ccc3nc(OCC(F)F)sc3n2)C1)NC(=O)C(F)(F)F` [Compound I-207], the IC50 was 11 nM.
With `CC(=O)N[C@@H](C)CO[C@H]1CC[C@H](Oc2ccc3nc(N4CC(F)(F)C4)sc3n2)CC1` [Compound I-208], the IC50 came out at 8 nM.
In the case of `CC(=O)N[C@@H](C)CO[C@H]1CC[C@H](Oc2ccc3nc(OC(C)C)sc3n2)CC1` [Compound I-209], the IC50 worked out at 12 nM.
Turning to `CCOc1nc2cnc(O[C@H]3CC[C@H](OC[C@H](C)NC(C)=O)CC3)c(F)c2s1` [Compound I-210], the IC50 was found to be 6 nM.
With `CC(=O)N[C@@H](C)CO[C@H]1C[C@H](COc2ccc3nc(OCC4(C)COC4)sc3n2)C1` [Compound I-211], the IC50 is 97 nM.
With `CCOc1nc2cc(Cl)c(OC[C@H]3C[C@H](OC[C@H](C)NC(C)=O)C3)nc2s1` [Compound I-212], the IC50 is 17 nM.
With `CC(=O)N[C@@H](C)CO[C@H]1C[C@H](COc2nc3sc(OCC(F)F)nc3cc2Cl)C1` [Compound I-213], the IC50 came out at 28 nM.
With `CCOc1nc2c(Cl)c(F)c(OC[C@H]3C[C@H](OC[C@H](C)NC(C)=O)C3)nc2s1` [Compound I-214], the IC50 turned out to be 39 nM.
Regarding `CC(=O)N[C@@H](C)CO[C@H]1C[C@H](COc2ccc3nc(N4CC(F)(F)C4)sc3n2)C1` [Compound I-215], the IC50 came out at 21 nM.
Turning to `CCOc1nc2ccc(OC[C@H]3C[C@@H](OC[C@H](C)NC(C)=O)C3)nc2s1` [Compound I-216], the IC50 worked out at 8 nM.
`CC(=O)N[C@@H](C)CO[C@H]1C[C@@H](COc2ccc3nc(OCC(F)F)sc3n2)C1` [Compound I-217]: the IC50 turned out to be 8 nM.
With `CC(=O)N[C@@H](C)CO[C@H]1C[C@H](COc2ccc3nc(OC4CC(F)(F)C4)sc3n2)C1` [Compound I-218], the IC50 came to 8 nM.
The value for `CC(=O)N[C@@H](C)CO[C@H]1CC[C@H](Oc2cc3sc(OC4CC(F)(F)C4)nc3cn2)CC1` [Compound I-219] was 4 nM; that for `CC(=O)N[C@@H](C)CO[C@H]1CC[C@H](Oc2cc3sc(OCC4CC4(F)F)nc3cn2)CC1` (some centres unmarked) [Compound I-220] was 9 nM.
The value for `CC(=O)N[C@@H](C)CO[C@H]1CC[C@H](Oc2cc3sc(OCc4ccc(F)cc4)nc3cn2)CC1` [Compound I-221] was 172 nM; that for `CC(=O)N[C@@H](C)CO[C@H]1CC[C@H](Oc2cc3sc(OCC4(F)COC4)nc3cn2)CC1` [Compound I-222] was 246 nM; that for `CC(=O)N[C@@H](C)CO[C@H]1CC[C@H](Oc2cc3sc(OC(C)CF)nc3cn2)CC1` (some centres unmarked) [Compound I-223] was 48 nM.
As for `CC(=O)N[C@@H](C)CO[C@H]1CC[C@H](Oc2cc3sc(OC4CC4)nc3cn2)CC1` [Compound I-224], the IC50 came out at 34 nM.
The value for `CCOc1nc2ccc(OC[C@]3(F)C[C@H](OC[C@H](C)NC(C)=O)C3)nc2s1` [Compound I-225] was 48 nM; that for `CC(=O)N[C@@H](C)CO[C@H]1C[C@@](F)(COc2ccc3nc(OCC(F)F)sc3n2)C1` [Compound I-226] was 103 nM.
